Laboratory results published in patent US20220257601A1, “INHIBITORS OF PRC1 FOR TREATMENT OF CANCER” (Board of Regents, The University of Texas System, priority 2019, published 2022).
Values joined by “and” are separate entries in the source; they are usually repeats but may differ in a detail not shown here. Equal entries are not always repeated. Where two headings read alike, the source gives them in different places. Each block holds one molecule with its values, some of them ahead of it.

Key:
PC3 cells [1] = test: Bone metastasis after intracardiac injection of PC3 cells in male nude mice; assay type: in vivo, mouse; details: for Outgrowth of macroscopic bone lesions (bioluminescent imaging): data not shown
Method: (§1) For localized tumor growth assay, cells were resuspended in 100 μl PBS with Matrigel in 1:1 ratio and subcutaneously injected into both rear flanks. The volume of the s.c. xenograft was calculated as V=L×W^2/2, where L and W stand for tumor length and width, respectively. For experimental metastasis assays, cells were resuspended in 100 μl 1×PBS and intracardially injected into the left ventricle with a 26 G tuberculin syringe. For bone colonization, RM1 cells were resuspended 100 μl 1×PBS and injected into the intra-femoral artery. Metastatic burden was detected through non-invasive bioluminescence imaging of experimental animals using an IVIS Spectrum.
(§2) To investigate the effect of drug treatment, compounds or antibodies were delivered twice every week or every three days through i.p. injection except BLZ945, which was delivered orally. Bioluminescence signal was measured using the ROI tool in Living Image 4.4 software (PerkinElmer).
(§3) For bioluminescent imaging, mice were anesthetized and injected with 1.5 mg of D-luciferin retro-orbitally at the indicated times. Animals were imaged in an IVIS® 100 chamber within 5 min after D-luciferin injection, and data were recorded using LIVING IMAGE® software (Xenogen). To measure bone colonization after intracardiac injection, photon flux was calculated by using the ROI tool in the LIVING IMAGE® software. Bone metastases were further confirmed by X-Ray imaging. Mice were anesthetized with ketamine (100 mg/kg) and xylazine (10 mg/kg), placed on digital X ray Film (Scan X) and exposed at 25 kV for 15 s using a Faxitron instrument (Model MX-20; Faxitron Corp. Buffalo, Ill.).
(§4) The tissue sections were deparaffinized with EZPrep buffer (Ventana Medical Systems), antigen retrieval was performed with CC1 buffer (Ventana Medical Systems). Sections were blocked for 30 minutes with Background Buster solution (Innovex), followed by avidin-biotin blocking for 8 minutes (Ventana Medical Systems) (except for slides stained with CD4 and NKp46 antibodies). Sections were incubated with anti-RNF2, anti-BMI1, anti-Ki67, anti-Cleaved Caspase 3, anti-CD11b, anti-CD68, anti-CD8, anti-CD31, anti-B220, anti-FoxP3, anti-CD4, or anti-NKp46 for 5 hours, followed by 60 minutes incubation with biotinylated horse anti-rabbit IgG at 1:200 dilution (for Ki67, Cleaved Caspase 3, CD11b and CD8) or biotinylated goat anti-rat IgG at 1:200 dilution (for CD31, B220 and FoxP3) or biotinylated horse anti-goat IgG at 1:200 dilution (for CD4 and NKp46). The detection was performed with DAB detection kit (Ventana Medical Systems) according to manufacturer instruction. Slides were counterstained with hematoxylin and coverslipped with PERMOUNT™ (Fisher Scientific).

PRC1 = molecular target: T1, PRC1 (Homo sapiens, UniProt Q99496); test: Inhibition of H2Aub (monoubiquitylation of histone H2A) in PC3 cells; assay type: cell-based
T1 construct: PC3 cells were exposed to drugs for the indicated hours; endogenous in cells; host or cells: PC3 cells
T1 sequence (Q99496 2-336 limits assumed): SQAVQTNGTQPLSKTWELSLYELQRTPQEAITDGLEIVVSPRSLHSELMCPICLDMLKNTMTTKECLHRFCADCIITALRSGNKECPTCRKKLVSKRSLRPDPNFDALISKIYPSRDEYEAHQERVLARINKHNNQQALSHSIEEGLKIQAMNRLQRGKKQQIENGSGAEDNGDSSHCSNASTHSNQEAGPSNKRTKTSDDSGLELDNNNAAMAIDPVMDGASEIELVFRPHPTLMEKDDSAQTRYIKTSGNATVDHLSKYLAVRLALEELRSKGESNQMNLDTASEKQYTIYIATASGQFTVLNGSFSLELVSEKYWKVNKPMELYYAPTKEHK
Method: (§5) For immunoblotting, cells were washed with PBS and lysed in RIPA buffer (50 mM Tris-HCl pH 7.4, 150 mM NaCl, 1 mM EDTA, 1% Triton X-100, 1% sodium deoxycholate, and 0.1% SDS) supplemented with protease inhibitors (Calbiochem) and phosphatase inhibitors (PhosSTOP, Roche Life Science). Protein concentrations were measured by using the DC Protein Assay. Total RNA was extracted using the RNeasy Mini kit coupled with RNase-free DNase set (Qiagen) and reverse transcribed with SuperScript III First-Strand Synthesis SuperMix (Invitrogen). cDNA corresponding to approximately 10 ng of starting RNA was used for one reaction. Q-PCR was performed with Taqman Gene Expression Assay (Applied Biosystems). All quantifications were normalized to endogenous GAPDH.
PC3 cells were exposed to drugs for the indicated hours, then harvested using […] EDTA in PBS, and washed once with cold PBS. Nuclear extracts were prepared and histones were extracted using 0.4N sulfuric acid. H2A or ubH2A was measured using the indicated antibodies.

PC3 cells [2] = test: Tumor sphere assay, PC3 cells; assay type: cell-based, human; details: for IC50: Homo sapiens, PC-3, read-out: Inhibition of sphere formation ability normalized to control groups, IC50
Method: (§6) Single cell suspensions of LNCaP, DU145, PC3, PC3M or RM1 cells (1,000 cells/ml) were plated on ultra-low attachment plates and cultured in serum-free PrEGM (Lonza) supplemented with 1:50 B27, 20 ng/ml bFGF and 40 ng/ml EGF for 10 days. Tumor spheres were visualized under phase contrast microscope, photographed, and counted. For serial passage, tumor spheres were collected using 70-μm cell strainers and dissociated with ACCUTASE® for 30 min at 37° C. to obtain single-cell suspensions.

RM1 cells [3] = test: Metastasis in C57BL/6 mice injected with RM1 cells; assay type: in vivo, mouse
Method: as §1, §2
For bioluminescent imaging, mice were anesthetized and injected with 1.5 mg of D-luciferin retro-orbitally at the indicated times. Animals were imaged in an IVIS® 100 chamber within 5 min after D-luciferin injection, and data were recorded using LIVING IMAGE® software (Xenogen). To measure bone colonization after intracardiac injection, photon flux was calculated by using the ROI tool in the LIVING IMAGE® software. […]

RM1 cells [4] = test: Tumor sphere assay, RM1 cells; assay type: cell-based, mouse; details: data not shown
Method: as §6

[5] = test system: Pten^pc−/−Smad4^pc−/− cells; test: Multi-organ metastasis in FVB/NJ mice inoculated intracardially with Pten pc-/- Smad4 pc-/- cells; assay type: in vivo, mouse; details: for Numbers of TAMs and Tregs in bone lesions: on-treatment staining of bone lesions
Method: as §1, §2, §3, §4
For iNOS/CD68 or Arg1/CD68 staining, first, slides were incubated with anti-iNOS or anti-Arg1 for 5 hours, followed by 60 minutes incubation with biotinylated goat anti-rabbit IgG at 1:200 dilution. The detection was performed with Streptavidin-HRP D (part of DABMap kit, Ventana Medical Systems), followed by incubation with Tyramide Alexa Fluor 488 prepared according to manufacturer instruction with predetermined dilutions. Next, sections were incubated with anti-CD68 for 5 hours, followed by 60 minutes incubation with biotinylated goat anti-rabbit IgG at 1:200 dilution. The detection was performed with Streptavidin-HRP D (part of DABMap kit, Ventana Medical Systems), followed by incubation with Tyramide Alexa CF 594 prepared according to manufacturer instruction with predetermined dilutions. After staining slides were counterstained with DAPI for 10 min and coverslipped with MOWIOL®.
At the end point in vivo experiment, blood and bone marrow cells were collected from each mouse and treated with Red Blood Cell lysis buffer for 5 minutes. Cells were then washed once with RPMI supplemented 2% FBS, stained with indicated antibodies and analyzed by FACS.

PC3 cells [6] = test: Gene expression changes and pathway analysis compared with RNF2 silencing; assay type: cell-based, human; details: compared with 2 and RNF2 silencing; data not shown
Method: Data were analyzed in Partek. Total RNAs were isolated from PC3 cells. Libraries were prepared suing the standard methodology from Illumina. Generated libraries were run on a HiSeq2500 system. Raw reads were quality-checked and subsequently mapped to the human genome (hg19) using Tophat2 (2.2.4) using default settings (Langmead and Salzberg, 2012). Differential gene expression was analyzed using the DESeq2 (1.8.1) package in R using default settings (Love et al., 2014). Gene set enrichment analysis (GSEA) (Subramanian et al., 2005) was performed on a pre-ranked gene list that generated based on the gene expression changes between the RNF2 knockdown and control cells. […] Heatmap analysis was performed to show the gene expression patterns between the RNF2 knockdown and control repeats, using heatmap3 R package with ward2 as distance function. Gene expressions in the heatmap were transformed in logarithm scale and normalized accordingly.

RNF2-PRC1 complex = molecular target: T2, RNF2-PRC1 complex (Homo sapiens, UniProt Q99496); test: In vitro ubiquitination assay (cell-free system); assay type: biochemical; details: data not shown
T2 construct: RNF2-PRC1 complex was immunoprecipitated from one 15 cm plate of PC3 cells; endogenous in cells; host or cells: PC3 cells (immunoprecipitate)
T2 sequence (Q99496 2-336 limits assumed): T1 sequence (Q99496 2-336 limits assumed)
Method: RNF2-PRC1 complex was immunoprecipitated from one 15 cm plate of PC3 cells. After extensive washing, the complex was pre-incubated with drugs at 4° C. for 30 minutes. UBCH5c, E1, were from Boston Biochem. Reactions were performed in 30 μl of ubiquitilation buffer (50 mM Tris, pH 7.5, 2.5 mM MgCl2, 0.5 mM DTT) containing ubiquitin-activating enzyme 100 ng E1, 200 ng UBCH5c, 10 μg ubiquitin, 0.2 mM ATP, 1 μg H2A, and the indicated PNF2-PRC1 complex. After incubated at 37° C. for 60 min, the reactions were then stopped by the addition of Laemmli sample buffer, and proteins were resolved by SDS-PAGE and immunoblotted using H2A antibody.

PC3 cells [7] = test: Cell growth under standard culture conditions; assay type: cell-based, human; details: concentrations up to 1 μM, data not shown
Method: Control and RNF2-silenced PC3 cells were plated at 1×10^3 per well in 96 well plates for 24 hours. After 24 hours, cells were incubated in 0.5 mg/ml MTT (Invitrogen) for 2 h at 37° C. MTT crystals were dissolved in DMSO and absorbance was measured in a plate reader at 540 nm.
The candidate library was provided by the Organic Synthesis Core Facility from MSKCC. The testing concentration of candidate compounds on PC3 cells was 1 μM. RNF2 target gene expression change was used as a readout for the first round screen. Cell viability, tumor sphere formation assay and histone modification change were then used to further confirm the activity of the candidate compound.

[8] = test system: RNF2 target genes (CCL2, CXCL1, LGR5, NTS, ATF3); test: Quantitative RT-PCR of RNF2 target genes in PC3 or RM1 cells; assay type: cell-based; details: 0.5 and 1.0 μM; compared with RNF2 silencing
Method: as §5

[9] = PC3 cells, titration experiments
[10] = PC3 cells, read-out: Inhibition of H2Aub normalized to control groups, IC50
[11] = bone metastatic sites, Pten/Smad4 and RM1 models

SMILES: Cc1ccc2c(c1)C1(CCN(CCc3nc(-c4ccccc4)oc3C)CC1)OC(=O)N2 [RS504393, reference compound]
Outgrowth of macroscopic bone lesions (bioluminescent imaging) (PC3 cells [1]): effectively inhibit the outgrowth of macroscopic bone lesions

SMILES: CNC(=O)c1cc(Oc2ccc3nc(N[C@@H]4CCCC[C@H]4O)sc3c2)ccn1 [BLZ945, reference compound]
Outgrowth of macroscopic bone lesions (bioluminescent imaging) (PC3 cells [1]): effectively inhibit the outgrowth of macroscopic bone lesions

Inhibition of H2AUb, fold more efficient as compared to 2 (PRC1; [9]): > 7.5 fold
IC50 (PRC1; [10]): 470 nM
Inhibition of PRC1 activity relative to 3 (PTC209) (PRC1; data not shown): more effectively as compared to 3
IC50 (PRC1; inhibitor of RNF2, read-out: Apparent IC50 in cells and on target): ~470 nM and ~500 nM
SMILES: Nc1ccc(CCN2C(=O)c3c(F)c(F)c(F)c(F)c3C2=O)cc1 [Compound 1]
IC50 (PC3 cells [2]; PC3 cells): 130 nM
Inhibition of sphere formation, fold more efficient as compared to 2 (PC3 cells [2]; [9]): > 7.5 fold
Outgrowth of bone, brain and liver metastases (RM1 cells [3]; C57BL/6 mice, data not shown): inhibited the outgrowth of bone, brain and liver metastases
FACS analysis of leukocytes from peripheral blood (RM1 cells [3]; treated mice): significant decrease of macrophages and increase of T cells and NK cells
Inhibition of tumor sphere (RM1 cells [4]): inhibited tumor sphere to a similar extent
Formation of bone metastases (PC3 cells [1]; 25 mg/kg, treatment from day 7, 2×/week): prevented formation of bone metastases
Expansion of bone macrometastases (PC3 cells [1]; 25 mg/kg, treatment from day 21, 2 weeks of treatment): significant suppression of their expansion
Nuclear H2AUb levels in bone sections (IHC) (PC3 cells [1]; bone sections of treated mice): substantially decreases
Secretion of CCL2 in the tumor microenvironment (IHC) (PC3 cells [1]; bone sections of treated mice): substantially decreases
Multi-organ metastasis (bioluminescent imaging) ([5]; 1 at 10 mg/kg, DCIT = anti-CTLA4 + anti-PD-1): only inhibited this process
Number of M1-like macrophages [5, 11]: increases the number of M1-like macrophages
Percentage of M2-like TAMs (CD68 and Arg1/iNOS double staining) [5, 11]: dramatically decreases the percentage of M2-like TAMs
Numbers of TAMs and Tregs in bone lesions ([5]; Pten/Smad4 and RM1 models): reduces the numbers of TAMs and Tregs
Numbers of MDSCs and TAMs (FACS) ([5]; peripheral blood and bone marrow): reduces the numbers of MDSCs and TAMs
Gene expression changes in cancer-relevant pathways (PC3 cells [6]): changes larger than those caused by 2 and by RNF2 silencing
Inhibition of RNF2-mediated H2AUb (RNF2-PRC1 complex): inhibited RNF2-mediated H2AUb in a dose-dependent fashion
Inhibition of cell growth (PC3 cells [7]): did not inhibit cell growth
Downregulation or upregulation of key PRC1 targets (RT-qPCR) [8]: as effectively as silencing of RNF2

SMILES: O=C1C(=Cc2cccnc2)C(=O)c2ccccc21 [Compound 2, 2-(pyridin-3-ylmethylene)-1H-indene-1,3(2H)-dione, reference compound]
Concentration at which PRC1 activity was inhibited, assessed by monoubiquitylation of histone H2A (PRC1): 25 µM
IC50 (PRC1; [10]): 3520 nM
IC50 (PC3 cells [2]; PC3 cells): 1050 nM
Concentration at which growth of oncospheres was inhibited (PC3 cells [2]; inhibited only at this concentration): 25 µM
Number of M1-like macrophages [5, 11]: increases the number of M1-like antigen presentation-competent macrophages
Numbers of TAMs and Tregs in bone lesions ([5]; Pten/Smad4 and RM1 models): suppresses the recruitment of total TAMs
